Test results from patent publication US4559402A, “Pyrazolopyridines and tetrahydro pyrazolopyridines” (Kyorin Seiyaki Kabushiki Kaisha, priority 1983, dated 1985).
Where two headings read alike, the source gives them in different places.

Experiments:
[1] = test system: Rabbit platelet aggregation induced by arachidonic acid; assay: Effects on rabbit platelet aggregation in vitro (PRP), arachidonic acid-induced; format: cell-based; details: Oryctolagus cuniculus, 0.05 h, arachidonic acid 10^-4 M, 3 min. preincubation, read-out: IC100 (concentration which gave maximum (100%) inhibition against platelet aggregation)
Method: (§1) The antiaggregant activity in vitro of the present compounds was studied in platelet rich plasma from rabbit and man.
(§2) Blood was taken from the femoral artery of rabbit with a syringe containing sodium citrate (3.8%, 1 vol. in 9 vol. of blood). The citrated blood was centrifuged at 800 rpm. The supernatants were stored at 10° C. until use as platelet rich plasma (PRP) in the subsequent experiment. Platelet aggregation was determined with aggregometer (D-P 247 E, SIENCO Ltd.). Stock solution of test compounds was made by suspending at a concentration of 10 mg/ml in 1% gum arabic solution. Further, dilution was made with 0.9% saline. PRP was preincubated for 3 min. with the test compounds, and then arachidonic acid as aggregant was added at final concentration of 10^-4 M.
(§3) IC100 -values are the concentrations which gave maximum (100%) inhibition against platelet aggregation caused by arachidonic acid.

[2] = test system: human platelet aggregation, collagen-induced; assay: Effects on human platelet aggregation in vitro (PRP), collagen-induced; format: cell-based; details: 0.05 h, collagen 6-8 μg/ml, read-out: concentration that completely inhibited platelet aggregation
Method: as §1, §2, §3
(§4) Blood samples were taken from median cubital vein of 5 healthy volunteers (male, 30 to 42 age) with plastic syringe. The citrated blood (sodium citrate 1 vol. in 9 vol. of blood) was centrifuged at 1000 rpm. The supernatant (PRP) was stored at 10° C. and used within 5 hours. Arachidonic acid (4-8×10^-4 M) and collagen (6-8 μg/ml, SIGMA, Type III) were used as aggregants. Other procedures were the same as in Experiment 1.

[3] = Gastro-intestinal lesions in rats (ulcerogenic activity); design: species or system Male Wistar rats; details: rat, in vivo, po
Method: Male Wistar rats weighing 250 to 300 g were used in this experiment. Ulcer formation under the satiety condition was studied as follows: Rats not fasted prior to experiment were administered orally with test compounds. The animals were allowed free access to diet and water for 24 hours after the drug administration until sacrificed by exsanguination. The stomach and the intestine were removed and examined for lesions.
In the other study, rats had been deprived of food and water for 24 hours before drug administration. The animals were administered orally with the compound of Example 2 and aspirin and then they had free access to water but not to diet. Twenty-four hours later, the animals were killed by the exsanguination. The stomach and the intestine were removed and observed carefully to know whether or not lesions were present.
Units for the UD50values: mg/kg, p.o. UD50 means the dose that
cause the lesions in 50% of animals.

[4] = test system: arachidonic acid-induced aggregation of platelets from rabbit; assay: Ex vivo studies on platelet aggregation (PRP from rabbit administered orally), arachidonic acid-induced; format: in vivo; details: oral, blood taken one hour after administration, FIG. 1
Method: To know the absorbability and potency of the compound of this invention, another platelet aggregation tests were done using the PRP from rabbit which had been administered orally with the drugs.
Rabbits were administered orally with the compound of Example 2 or aspirin. One hour after the drug administration, blood was taken from the femoral artery. The methods for preparing PRP and determining platelet aggregation were the same as Experiment 1.

[5] = Effect on blood viscosity (whole blood and plasma viscosities, hematocrit); format: in vivo, Male Wistar rats; details: rat, 10 mg/kg p.o. twice a day for 2 days
Method: Male Wistar rats weighing 300-380 g were used in this experiment. Rats were administered orally 10 mg/kg twice a day of the compound of Example 2 for 2 days. One hour after the last treatment, rats were anaesthetized with pentobarbital 35 mg/kg ip, and then blood was taken from vena cava caudalis. EDTA was added at a final concentration of 2 mM.
Whole blood and plasma viscosities were measured with rotational viscometer (Contraves LS-30, shear rate 0-128.5 sec.^-1, 37° C.) and hematocrit was determined by microhematocrit centrifugation (13,000 g for 5 min.).

[6] = Acute Toxicity (LD50), mice; details: mouse, in vivo
[7] = test system: human platelet aggregation, arachidonic acid-induced; assay: Effects on human platelet aggregation in vitro (PRP), arachidonic acid-induced; format: cell-based
Method: as §1, §2, §3, §4

[8] = Acute Toxicity (LD50), rats; details: rat, in vivo
[9] = iv, read-out: Acute Toxicity LD50, I.V.
[10] = po, read-out: Acute Toxicity LD50, P.O.

SMILES: Cc1nn2ccccc2c1C(=O)C1=CN(C(=O)Nc2ccc(Cl)cc2)CCC1 [Example 4, 2-methyl-3-[1-(p-chlorophenylcarbamoyl)-1,4,5,6-tetrahydronicotinoyl]-pyrazolo[1,5-a]pyridine]
- IC100 [1]: 1 µg/mL

SMILES: Cc1nn2ccccc2c1C(=O)c1cccnc1 [Example 1, 2-methyl-3-nicotinoylpyrazolo[1,5-a]pyridine]
- IC100 [1]: 6 µg/mL

SMILES: CC(=O)Oc1ccccc1C(=O)O [Aspirin, reference compound]
- IC100 [2]: 100 µg/mL
- IC100 [1]: 4 µg/mL
- TD50 at 24 h ([3]; deprived of food and water for 24 hours before, examined 24 hours after, read-out: UD50 (dose that cause the lesions in 50% of animals), Fasting): 25 to 50 mg/kg
- TD50 at 24 h ([3]; not fasted, 24 hours, read-out: UD50 (dose that cause the lesions in 50% of animals), Satiety): 230 mg/kg

SMILES: CCOC(=O)C(C)N1C=C(C(=O)c2c(C)nn3ccccc23)CCC1 (centres unmarked) [Example 10, 3-[1-(1-ethoxycarbonylethyl)-1,4,5,6-tetrahydronicotinoyl]-2-methylpyrazolo-[1,5-a]pyridine]
- IC100 [1]: 0.3 µg/mL

SMILES: Cc1nn2c(c1C(=O)C1=CNCCC1)CCCC2 [Example 3, 2-methyl-3-(1,4,5,6-tetrahydronicotinoyl)-4,5,6,7-tetrahydropyrazole[1,5-a]pyridine]
- IC100 [1]: 0.2 µg/mL

SMILES: Cc1nn2ccccc2c1C(=O)C1=CNCCC1 [Example 2, 2-methyl-3-(1,4,5,6-tetrahydronicotinoyl)pyrazolo[1,5-a]pyridine]
- IC100 [1]: 0.03 µg/mL
- inhibitory activity on arachidonic acid-induced platelet aggregation relative to aspirin [4]: several times as high as aspirin
- effect on hematocrit [5]: no effects
- effect on plasma viscosity [5]: no effects
- reduction of whole blood viscosity, shear rate 0.1285 sec.^-1 [5]: 50.1%
- reduction of whole blood viscosity, shear rate 0.514 sec.^-1 [5]: 36.1%
- reduction of whole blood viscosity, shear rate 6.425 sec.^-1 [5]: 23.5%
- reduction of whole blood viscosity, shear rate 25.7 sec.^-1 [5]: 19.2%
- reduction of whole blood viscosity, shear rate 128.5 sec.^-1 [5]: 12.0%
- Plasma Viscosity ([5]; 37° C.): 1.14 ± 0.01 mPS
- Whole Blood Viscosity, shear rate 0.1285 sec.^-1 ([5]; 37° C., * p < 0.05 vs vehicle): 24.8 ± 2.71 mPS
- Whole Blood Viscosity, shear rate 0.514 sec.^-1 ([5]; 37° C., * p < 0.05 vs vehicle): 17.2 ± 1.31 mPS
- Whole Blood Viscosity, shear rate 6.425 sec.^-1 ([5]; 37° C., * p < 0.05 vs vehicle): 7.31 ± 0.36 mPS
- Whole Blood Viscosity, shear rate 25.7 sec.^-1 ([5]; 37° C., * p < 0.05 vs vehicle): 5.18 ± 0.12 mPS
- Whole Blood Viscosity, shear rate 128.5 sec.^-1 ([5]; 37° C., * p < 0.05 vs vehicle): 3.68 ± 0.08 mPS
- Hematocrit ([5]; microhematocrit centrifugation): 46.0 ± 0.71%
- TD50 at 24 h ([3]; UD50 (dose that cause the lesions in 50% of animals), Fasting): 300 to 500 mg/kg
- TD50 at 24 h ([3]; UD50 (dose that cause the lesions in 50% of animals), Satiety): > 1000 mg/kg
- LD50 [6, 9]: 125 to 150 mg/kg
- LD50 [6, 10]: > 1000 mg/kg
- difference in the IC100-values between individuals ([7]; arachidonic acid and collagen, considered to be due to individual difference): About 300 folds
- inhibitory activity against both arachidonic acid- and collagen-induced platelet aggregation ([7]; comparison of the two aggregants): almost the same inhibitory activity
- LD50 [8, 9]: > 100 mg/kg
- LD50 [8, 10]: > 1000 mg/kg
